Results published in ChEMBL document CHEMBL3822409, “Synthesis and antitubercular activity of new 1,3,4-oxadiazoles bearing pyridyl and thiazolyl scaffolds” (Bioorg Med Chem Lett, 2016).
Converted amounts (≈) assume the structure as drawn.

Columns and labels:
[1] = test system: Mycobacterium tuberculosis variant bovis BCG; assay: Antimycobacterial activity against active stage of Mycobacterium bovis BCG ATCC 35734 measured on day 8 by nitrate reductase assay; format: functional, organism-based; conditions: ATCC 35734, 192 h
[2] = test system: Mycobacterium tuberculosis variant bovis BCG; assay: Antimycobacterial activity against dormant stage of Mycobacterium bovis BCG ATCC 35734 measured on day 12 by nitrate reductase assay; format: functional, organism-based; conditions: ATCC 35734, 288 h

| Compound | IC50 [1] [µg/mL] | MIC [1] [µg/mL] | IC50 [2] [µg/mL] | MIC [2] [µg/mL] |
| --- | --- | --- | --- | --- |
| Cc1nc(-c2cccnc2)sc1-c1nnc(-c2ccccc2)o1 | > 30 | > 30 | > 30 | > 30 |
| Cc1nc(-c2cccnc2)sc1-c1nnc(-c2ccc(O)cc2)o1 | > 30 | > 30 | > 30 | > 30 |
| Cc1nc(-c2cccnc2)sc1-c1nnc(-c2ccc([N+](=O)[O-])cc2)o1 | 22.5 (≈ 61.6 µM) | > 30 | 24.9 (≈ 68.2 µM) | > 30 |
| Cc1nc(-c2cccnc2)sc1-c1nnc(-c2cccc(Cl)c2Cl)o1 | > 30 | > 30 | > 30 | > 30 |
| COc1ccccc1-c1nnc(-c2sc(-c3cccnc3)nc2C)o1 | 1.46 (≈ 4.17 µM) | 2.65 (≈ 7.56 µM) | 1.8 (≈ 5.14 µM) | 3.95 (≈ 11.3 µM) |
| Cc1ccc(-c2nnc(-c3sc(-c4cccnc4)nc3C)o2)cc1 | 14.2 (≈ 42.6 µM) | > 30 | 15.2 (≈ 45.5 µM) | > 30 |
| Cc1nc(-c2cccnc2)sc1-c1nnc(-c2ccncc2)o1 | 24.7 (≈ 76.8 µM) | 40 (≈ 125 µM) | 28 (≈ 87 µM) | 42.2 (≈ 131 µM) |
| Cc1ccccc1-c1nnc(-c2sc(-c3cccnc3)nc2C)o1 | 2.69 (≈ 8.04 µM) | 5.84 (≈ 17.5 µM) | 1.44 (≈ 4.31 µM) | 4.91 (≈ 14.7 µM) |
| Cc1nc(-c2cccnc2)sc1-c1nnc(-c2ccccc2Cl)o1 | 2.62 (≈ 7.38 µM) | 5.16 (≈ 14.5 µM) | 1.47 (≈ 4.14 µM) | 4.77 (≈ 13.4 µM) |
| Cc1cccc(-c2nnc(-c3sc(-c4cccnc4)nc3C)o2)c1 | > 30 | > 30 | > 30 | > 30 |
| Cc1nc(-c2cccnc2)sc1-c1nnc(-c2ccc(Br)cc2)o1 | > 30 | > 30 | > 30 | > 30 |
| Cc1nc(-c2cccnc2)sc1-c1nnc(Cc2ccccc2)o1 | 7.2 (≈ 21.5 µM) | 11.3 (≈ 33.8 µM) | 5.26 (≈ 15.7 µM) | 10.4 (≈ 31 µM) |
| Cc1nc(-c2cccnc2)sc1-c1nnc(-c2cccnc2)o1 | 24.5 (≈ 76.2 µM) | 40.4 (≈ 126 µM) | 56.3 (≈ 175 µM) | 94.9 (≈ 295 µM) |
| Cc1nc(-c2cccnc2)sc1-c1nnc(-c2ccccc2[N+](=O)[O-])o1 | 1.68 (≈ 4.6 µM) | 2.56 (≈ 7.01 µM) | 3.55 (≈ 9.72 µM) | 5.89 (≈ 16.1 µM) |
| Cc1nc(-c2cccnc2)sc1-c1nnc(-c2ccc(Cl)cc2)o1 | > 30 | > 30 | > 30 | > 30 |
| CO[C@H]1/C=C/O[C@@]2(C)Oc3c(C)c(O)c4c(O)c(c(/C=N/N5CCN(C)CC5)c(O)c4c3C2=O)NC(=O)/C(C)=C\C=C\[C@H](C)[C@H](O)[C@@H](C)[C@@H](O)[C@@H](C)[C@H](OC(C)=O)[C@@H]1C [RIFAMPIN] | 0.003 (≈ 0.00365 µM) | 0.08 (≈ 0.0972 µM) | 0.0027 (≈ 0.00328 µM) | 0.05 (≈ 0.0608 µM) |
